Laboratory results as given in patent publication US6008251A, “Retinoid-like compounds” (Bristol-Myers Squibb Company, priority 1998, dated 1999).

Assays:
HL60 cells = experiment: Differentiation and apoptosis of HL 60 cells (NBT staining); type: cell-based; details: for EC50 (culture day necessary to convert cells into a differentiated or apoptosed phenotype): 1 μM compound, culture up to 9 days, NBT staining
Protocol: HL 60 cells were evaluated for the effect of retinoic acid and the compound of Example 1 on both differentiation and apoptosis end points by the method described in Molecular and Cellular Biology, 15, 3540-3551 (1995). Cells were grown in culture for times up to 9 days in the presence of 1 μM all-trans retinoic acid (t-RA) or 1 μM compound of Example 1. At the end of each day of the culture period, cells were washed and stained with NBT (nitro blue tetrazolium) and counted.

[1] = tested on: squamous-cell carcinoma of the head and neck; details: cited from earlier work

SMILES	EC50 (culture day necessary to convert cells into a differentiated or apoptosed phenotype) (HL60 cells) [days]	activity in this assay compared with t-RA (in words) (HL60 cells; 1 μM, compared with 1 μM t-RA)	percentage of either differentiated or apoptosed HL60 cells (HL60 cells; 1 μM, day 1) [%]	percentage of either differentiated or apoptosed HL60 cells (HL60 cells; 1 μM, day 2) [%]	percentage of either differentiated or apoptosed HL60 cells (HL60 cells; 1 μM, day 3) [%]	percentage of either differentiated or apoptosed HL60 cells (HL60 cells; 1 μM, day 4) [%]	percentage of either differentiated or apoptosed HL60 cells (HL60 cells; 1 μM, day 5) [%]	percentage of either differentiated or apoptosed HL60 cells (HL60 cells; 1 μM, day 6) [%]	percentage of either differentiated or apoptosed HL60 cells (HL60 cells; 1 μM, day 7) [%]	percentage of either differentiated or apoptosed HL60 cells (HL60 cells; 1 μM, day 8) [%]	percentage of either differentiated or apoptosed HL60 cells (HL60 cells; 1 μM, day 9) [%]	prevention of second primary tumors (in words) [1]
CC1(C)C(=O)C(C)(C)c2cc(C(=O)Nc3ccc(C(=O)O)cc3)ccc21 [Example 1, 4(1',1',3',3'-Tetramethyl-2'-keto-indan-5'-carboxamido)benzoicacid]	4.0	comparable to t-RA	11	22	40	50	61	78	85	95	93	
CC1=C(/C=C/C(C)=C/C=C/C(C)=C/C(=O)O)C(C)(C)CCC1 [all-trans retinoic acid]	3.2		21	23	48	80	95	96	97	98	97	
CC1=C(/C=C/C(C)=C/C=C/C(C)=C\C(=O)O)C(C)(C)CCC1 [Isotretinoin]												useful in prevention of second primary tumors
